Experiments:
CDK6/Cyclin D3 = CDK6/Cyclin D3 (Homo sapiens, UniProt Q00534); assay: Inhibition of human full-length N-terminal GST tagged CDK6 (1 to 326 residues)/GST-tagged cyclinD3 (1 to 292 residues) expressed in baculovirus expression system using ULight-elF4E-binding protein 1 peptide as substrate measured after 30 mins by LANCE assay
CDK4/Cyclin D3 = CDK4/Cyclin D3 (Homo sapiens, UniProt P11802); assay: Inhibition of recombinant human full-length N-terminal GST-fused CDK4 (1 to 303 residues)/GST-tagged CyclinD3 (1 to 292 residues) expressed in baculovirus expression system using ULight-elF4E-binding protein 1 peptide as substrate measured after 30 mins by LANCE assay
Chain of CDK4/Cyclin D3 (P11802 whole entry, the tested form may be a part): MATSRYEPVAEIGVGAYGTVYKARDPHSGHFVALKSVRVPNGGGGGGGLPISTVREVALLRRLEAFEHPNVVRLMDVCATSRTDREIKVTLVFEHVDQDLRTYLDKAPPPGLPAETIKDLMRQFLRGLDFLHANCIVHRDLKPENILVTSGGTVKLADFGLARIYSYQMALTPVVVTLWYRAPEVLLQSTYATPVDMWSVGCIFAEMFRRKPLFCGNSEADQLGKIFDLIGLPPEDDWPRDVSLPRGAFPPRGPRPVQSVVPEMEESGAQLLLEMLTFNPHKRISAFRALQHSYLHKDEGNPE
Chain of CDK4/Cyclin D3 (P30281 whole entry, further chain, the tested form may be a part): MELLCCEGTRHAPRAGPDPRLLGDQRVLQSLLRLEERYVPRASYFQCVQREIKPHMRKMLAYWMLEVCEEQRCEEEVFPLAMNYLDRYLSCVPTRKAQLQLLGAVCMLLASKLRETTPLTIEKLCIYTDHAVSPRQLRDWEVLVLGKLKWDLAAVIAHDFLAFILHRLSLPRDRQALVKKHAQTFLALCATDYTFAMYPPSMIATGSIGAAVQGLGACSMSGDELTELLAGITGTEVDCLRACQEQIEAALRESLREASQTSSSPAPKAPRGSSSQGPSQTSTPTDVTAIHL

U-87 MG = assay: Antiproliferative activity against human U-87 MG cells assessed as cell growth inhibition measured after 4 to 6 days by celltiter-glo luminescent cell viability assay; type: functional, cell-based, U-87MG ATCC
COLO 205 [1] = assay: Antiproliferative activity against human COLO 205 cells assessed as cell growth inhibition measured after 4 to 6 days by celltiter-glo luminescent cell viability assay; type: functional, cell-based
MDA-MB-468 = assay: Antiproliferative activity against human MDA-MB-468 cells assessed as cell growth inhibition measured after 4 to 6 days by celltiter-glo luminescent cell viability assay; type: functional, cell-based
COLO 205 [2] = assay: Cell cycle arrest in human COLO 205 cells assessed as accumulation at G0/G1 phase at 200 nM measured after 24 hrs by propidium iodide staining based flow cytometry relative to control; type: functional

Chain of CDK6/Cyclin D3 (Q00534 whole entry, looked up, the tested form may be a part): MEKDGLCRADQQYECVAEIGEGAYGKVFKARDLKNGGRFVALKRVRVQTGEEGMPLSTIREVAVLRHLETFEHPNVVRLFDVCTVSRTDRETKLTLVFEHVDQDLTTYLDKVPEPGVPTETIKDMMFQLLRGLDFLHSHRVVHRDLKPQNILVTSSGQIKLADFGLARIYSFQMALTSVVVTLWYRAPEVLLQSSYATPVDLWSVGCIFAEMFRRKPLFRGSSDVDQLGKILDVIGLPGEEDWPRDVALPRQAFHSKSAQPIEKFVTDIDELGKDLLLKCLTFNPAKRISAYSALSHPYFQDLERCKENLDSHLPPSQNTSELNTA

| SMILES | IC50 (CDK6/Cyclin D3) [nM] | IC50 (CDK4/Cyclin D3) [nM] | IC50 (U-87 MG) [nM] | IC50 (COLO 205 [1]) [nM] | IC50 (MDA-MB-468) [nM] | Activity (COLO 205 [2]) [%] |
| --- | --- | --- | --- | --- | --- | --- |
| CNCCN1CCc2nc(Nc3ncc4c(C)c(C(C)=O)c5nc(C(C)C)cn5c4n3)ccc2C1 | 7.1 | 2.7 | 184 | 639 |  |  |
| CC(=O)c1c(C)c2cnc(Nc3ccc4c(n3)CCN(CCN(C)C)C4)nc2n2cc(C(C)C)nc12 | 5.1 | 4.2 | 249 | 324 |  |  |
| Cc1cn2c(n1)c(C#N)c(C)c1cnc(Nc3ccccc3)nc12 | 112 | 98.9 |  |  |  |  |
| Cc1cn2c(n1)c(C#N)c(C)c1cnc(N)nc12 | 3090 | 592 |  |  |  |  |
| CCN1CCN(Cc2ccc(Nc3ncc(F)c(-c4cc(F)c5nc(C)n(C(C)C)c5c4)n3)nc2)CC1 [ABEMACICLIB] |  |  |  |  | 1140 | 95.3 |

More lines, main results first:

| IC50 (CDK6/Cyclin D3) [nM] | IC50 (CDK4/Cyclin D3) [nM] | IC50 (U-87 MG) [nM] | IC50 (COLO 205 [1]) [nM] | IC50 (MDA-MB-468) [nM] | SMILES | Activity (COLO 205 [2]) [%] |
| --- | --- | --- | --- | --- | --- | --- |
| 5.9 | 4.7 | 64.8 | 73.4 |  | CC(=O)c1c(C)c2cnc(Nc3ccc(N4CCNCC4)cc3)nc2n2cc(C3CCCC3)nc12 |  |
| 32.8 | 13.5 | 412 | 474 |  | CC(=O)c1c(C)c2cnc(Nc3ccc(N4CCNCC4)cc3)nc2n2cc(-c3ccccc3)nc12 |  |
| 3.8 | 4 | 719 | 1280 |  | CC(=O)c1c(C)c2cnc(Nc3ccc(N4CCC5(CCNC5)C4)cn3)nc2n2cc(C(C)C)nc12 (stereo not given) |  |
| 924 | > 3330 |  |  |  | Cc1cn2c(n1)c(C#N)c(C)c1cnc(Nc3ccc(Br)cc3)nc12 |  |
| 5.6 | 5.3 | 380 | 932 |  | CC(=O)c1c(C)c2cnc(Nc3ccc(C(=O)N4CCNCC4)cn3)nc2n2cc(C(C)C)nc12 |  |
| 86.6 | 22.3 | > 10000 | 2840 |  | CCOC(=O)c1cn2c(n1)c(C(C)=O)c(C)c1cnc(Nc3ccc(N4CCNCC4)cc3)nc12 |  |
| 2.5 | 2.2 | 165 | 356 |  | CC(=O)c1c(C)c2cnc(Nc3ccc(CN4CCNCC4)cn3)nc2n2cc(C(C)C)nc12 |  |
